Key:
[1] = urine phosphate excretion in dogs dosed orally with capsules; assay type: in vivo, beagle dogs; details: oral capsules, 2250 mg elemental lanthanum twice daily, urine approximately 24 hours after dosing
Experimental: (§1) Six adult beagle dogs were dosed orally with capsules of LaCO3OH (compound A) or La2O2CO3 (compound B) in a cross-over design using a dose of 2250 mg elemental lanthanum twice daily (6 hours apart). The doses were administered 30 minutes after provision of food to the animals. At least 14 days washout was allowed between the crossover arms. Plasma was obtained pre-dose and 1.5, 3, 6, 7.5, 9, 12, 24, 36, 48, 60, and 72 hours after dosing and analyzed for lanthanum using ICP-MS. Urine was collected by catheterization before and approximately 24 hours after dosing and creatinine and phosphorus concentrations measured.
The tests led to reduction of urine phosphate excretion, a marker of phosphorous binding.

[2] = binding efficiency test, spiked water; details: 0.50 g in 30.0 ml spike solution, approximately 1 mg/l of each element, 18 hrs, room temperature
Experimental: Tests were run to determine the binding efficiency of eight different compounds for twenty-four different elements.
The main objective of the tests was to investigate the efficiency at which the compounds bind arsenic and selenium, in view of their use in removing those elements from drinking water. Twenty-one different anions were also included to explore further possibilities. The tests were performed as follows:
The compounds given in Table 6 were added to water and a spike and were vigorously shaken at room temperature for 18 hrs. The samples were filtered and the filtrate analyzed for a suite of elements including Sb, As, Be, Cd, Ca, Cr, Co, Cu, Fe, Pb, Mg, Mn, Mo, Ni, Se, Tl, Ti, V, Zn, Al, Ba, B, Ag, and P.
2. Add standard solutions of the elements given above to make solutions containing approximately 1 mg/l of each element.
1. Weigh 0.50 g of each compound into its own 50 ml centrifuge tube.
2. Add 30.0 ml of the spike solution to each.
3. Cap tightly and shake vigorously for 18 hrs.
4. Filter solution from each centrifuge tube through 0.2 µm syringe filter. Obtain about 6 ml of filtrate.
5. Dilute filtrates 5:10 with 2% HNO3. Final Matrix is 1% HNO3.

[3] = plasma lanthanum exposure in dogs (ICP-MS); assay type: in vivo, beagle dogs; details: oral capsules, 2250 mg elemental lanthanum twice daily, (standard deviation)
Experimental: as §1

[4] = specific surface area by the BET method; assay type: physicochemical; details: one of three repeats of Example 5
Experimental: For each sample, the surface area measured by the BET method and the fraction of phosphate remaining after 10 min of reaction have been tabulated. […] The rate constant k1 is defined by the following equation: d[PO4]/dt=−k1[PO4]
An aqueous HCl solution having a volume of 334.75 ml and containing LaCl3 (lanthanum chloride) at a concentration of 29.2 wt % as La2O3 was added to a 4 liter beaker and heated to 80° C. with stirring. The initial pH of the LaCl3 solution was 2.2. Two hundred and sixty five ml of an aqueous solution containing 63.59 g of sodium carbonate (Na2CO3) was metered into the heated beaker using a small pump at a steady flow rate for 2 hours. Using a Buchner filtering apparatus fitted with filter paper the filtrate was separated from the white powder product. The filter cake was mixed four times, each with 2 liters of distilled water and filtered to wash away the NaCl formed during the reaction. The washed filter cake was placed into a convection oven set at 105° C. for 2 hours or until a stable weight was observed. […] The surface area of the product was determined by the BET method. The test was repeated 3 times and slightly different surface areas and different reaction rates were obtained as shown in Table 1.

[5] = second in vivo study in rats, urinary phosphate excretion; design: species or system Sprague-Dawley rats; details: 0.3 or 0.6% of diet, average over days 2, 3, and 4
Source text: Six young adult male Sprague-Dawley rats were randomly assigned to each group. Test items were lanthanum oxycarbonates La2O2CO3 and La2CO5 (compound B and compound C), each tested at 0.3 and 0.6% of diet. There was an additional negative control group receiving Sigmacell cellulose in place of the test item.
The test items were mixed thoroughly into Teklad 7012CM diet. All groups received equivalent amounts of dietary nutrients.
Rats were maintained in the animal facility for at least five days prior to use, housed individually in stainless steel hanging cages. On the first day of testing, they were placed individually in metabolic cages along with their test diet. Every 24 hours, their output of urine and feces was measured and collected and their general health visually assessed. The study continued for 4 days. Food consumption for each day of the study was recorded. Starting and ending animal weights were recorded.
Urine samples were assayed for phosphorus, calcium, and creatinine concentration in a Hitachi 912 analyzer using Roche reagents. Urinary excretion of phosphorus per day was calculated for each rat from daily urine volume and phosphorus concentration. […] Food consumption was good for all groups. […]

[6] = reactivity with respect to phosphate: phosphate removal from pH 3 Na2HPO4/HCl stock solution; assay type: binding; details: for rate of removal of phosphate compared with commercial lanthanum carbonate hydrate La2(CO3)3.H2O and La2(CO3)3.4H2O: FIGS. 17, 20, 23, pH 3; for capacity of phosphate removal (PO4 removed/g of La compound) / phosphate in solution removed: after 10 min, pH 3, La 3 times the stoichiometric amount
Experimental: A desirable lanthanum carbonate hydroxide is LaCO3OH. […] To determine the reactivity of the lanthanum carbonate hydroxide compound with respect to phosphate, the following procedure was used. A stock solution containing 13.75 g/l of anhydrous Na2HPO4 and 8.5 g/l of HCl is prepared. The stock solution is adjusted to pH 3 by the addition of concentrated HCl. 100 ml of the stock solution is placed in a beaker with a stirring bar. A sample of lanthanum carbonate hydroxide powder is added to the solution. The amount of lanthanum carbonate hydroxide powder is such that the amount of La in suspension is 3 times the stoichiometric amount needed to react completely with the phosphate. Samples of the suspension are taken at intervals, through a filter that separated all solids from the liquid. The liquid sample is analyzed for phosphorous.
(§2) To determine the reactivity of the lanthanum compound with respect to phosphate, the following test was conducted. A stock solution containing 13.75 g/l of anhydrous Na2HPO4 and 8.5 g/l of HCl was prepared. The stock solution was adjusted to pH 3 by the addition of concentrated HCl. An amount of 100 ml of the stock solution was placed in a beaker with a stirring bar. The lanthanum oxychloride from above was added to the solution to form a suspension. The amount of lanthanum oxychloride was such that the amount of La in suspension was 3 times the stoichiometric amount needed to react completely with the phosphate. Samples of the suspension were taken at time intervals, through a filter that separated all solids from the liquid. The liquid sample was analyzed for phosphorous.
as §2, with “Lanthanum carbonate hydroxide powder made as described” for “The lanthanum oxychloride from”, “solution.” for “solution to form a suspension.”, “carbonate hydroxide powder” for “oxychloride”, “intervals” for “intervals,”
(§3) To determine the reactivity of this lanthanum compound with respect to phosphate, the following test was conducted. A stock solution containing 13.75 g/l of anhydrous Na2HPO4 and 8.5 g/l of HCl was prepared. The stock solution was adjusted to pH 3 by the addition of concentrated HCl. An amount of 100 ml of the stock solution was placed in a beaker with a stirring bar. Anhydrous lanthanum oxycarbonate made as described above, was added to the solution. The amount of anhydrous lanthanum oxycarbonate was such that the amount of La in suspension was 3 times the stoichiometric amount needed to react completely with the phosphate. Samples of the suspension were taken at intervals, through a filter that separated all solids from the liquid. The liquid sample was analyzed for phosphorous.
as §3, with “reactivity of the lanthanum compound” for “reactivity of this lanthanum compound”, “stirring bar. La2CO5 powder, made as” for “stirring bar. Anhydrous lanthanum oxycarbonate made as”, “amount of lanthanum oxycarbonate” for “amount of anhydrous lanthanum oxycarbonate”, “taken at intervals through a” for “taken at intervals, through a”

| Molecule | Median phosphorus/creatinine ratio (% reduction compared to pre-dose value) [1] | % Analyte Removed As [2] | % Analyte Removed Be [2] | % Analyte Removed Ca [2] | % Analyte Removed Cd [2] | % Analyte Removed Co [2] | % Analyte Removed Cr [2] | % Analyte Removed Cu [2] | % Analyte Removed Fe [2] | % Analyte Removed Mg [2] | % Analyte Removed Mn [2] | % Analyte Removed Pb [2] | % Analyte Removed Sb [2] | Maximum concentration Cmax, plasma lanthanum [3] | Mean (sd) Area Under the Curve0-72 h, plasma lanthanum [3] | surface area of the white powder [4] | Urinary phosphate excretion [5] | rate of removal of phosphate compared with commercial lanthanum carbonate hydrate La2(CO3)3.H2O and La2(CO3)3.4H2O [6] | capacity of phosphate removal (PO4 removed/g of La compound) [6] | phosphate in solution removed [6] |
| --- | --- | --- | --- | --- | --- | --- | --- | --- | --- | --- | --- | --- | --- | --- | --- | --- | --- | --- | --- | --- |
| O=C([O-])[O-].[La+3].[La+3].[O-2].[O-2] [Compound B, anhydrous lanthanum oxycarbonate] | 37.0% | 92% | 100% | 21% | 85% | 59% | 100% | 98% | 100% | 0% | 99% | 99% | 97% | 2.45 (2.2) ng/mL | 42.7 (34.8) ng-h/mL | 26.95 m^2/gm | 2.3 mg/day | faster | 120 mg PO4/g | 73% |
| O=C([O-])[O-].[La+3].[OH-] [A, lanthanum carbonate hydroxide] | 48.4% | 29% | 53% | 28% | 37% | 29% | 100% | 10% | 58% | 0% | 25% | 98% | 87% | 2.77 (2.1) ng/mL | 54.6 (28.0) ng-h/mL | – | – | faster | 110 mg PO4/g | 86% |
| lanthanum oxycarbonate [Compound C] | – | 93% | 100% | 0% | 83% | 52% | 100% | 97% | 100% | 0% | 99% | 99% | 96% | – | – | – | 1.9 mg/day | faster | – | – |
